ChEMBL document CHEMBL4673401 (ACS Med Chem Lett, 2021)

Assays:
[1] = molecular target: T1, Indoleamine 2,3-dioxygenase 1 (Homo sapiens, UniProt P14902); assay: Inhibition of IDO1 in IFNgamma-stimulated human HeLa cells using L-tryptophan as substrate measured after 48 hrs
[2] = molecular target: T1, Indoleamine 2,3-dioxygenase 1; assay: Inhibition of human IDO1 expressed in Escherichia coli Rosetta using tryptophan as substrate incubated for 1 hr by methylene blue based assay
[3] = molecular target: Tryptophan 2,3-dioxygenase (Homo sapiens, UniProt P48775); assay: Inhibition of human TDO expressed in Escherichia coli Rosetta using tryptophan as substrate incubated for 1 hr by methylene blue based assay
Sequence of Tryptophan 2,3-dioxygenase (P48775 whole entry): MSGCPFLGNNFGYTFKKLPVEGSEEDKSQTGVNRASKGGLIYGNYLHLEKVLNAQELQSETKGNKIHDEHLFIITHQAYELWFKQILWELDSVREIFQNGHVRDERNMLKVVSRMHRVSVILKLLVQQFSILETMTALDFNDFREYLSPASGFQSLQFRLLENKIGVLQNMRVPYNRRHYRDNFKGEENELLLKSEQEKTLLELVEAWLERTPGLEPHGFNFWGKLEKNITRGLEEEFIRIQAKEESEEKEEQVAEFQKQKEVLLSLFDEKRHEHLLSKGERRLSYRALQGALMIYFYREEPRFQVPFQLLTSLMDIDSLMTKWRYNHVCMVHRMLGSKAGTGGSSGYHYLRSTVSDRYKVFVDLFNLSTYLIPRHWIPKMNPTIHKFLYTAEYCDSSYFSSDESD

[4] = Half life in Beagle dog at 2 mg/kg, po measured up to 24 hrs; type: ADME, organism-based, Canis lupus familiaris; settings: in vivo
[5] = AUC in Beagle dog at 2 mg/kg, po measured up to 24 hrs; type: ADME, organism-based, Canis lupus familiaris; parameters: route oral, dose 2 mg/kg, time <=24; settings: in vivo
[6] = Cmax in Beagle dog at 2 mg/kg, po measured up to 24 hrs; type: ADME, organism-based, Canis lupus familiaris; parameters: route oral, dose 2 mg/kg, time <=24; settings: in vivo
[7] = Half life in Sprague-Dawley rat at 3 mg/kg, po measured up to 24 hrs; type: ADME, organism-based; settings: in vivo
[8] = AUC in Sprague-Dawley rat at 3 mg/kg, po measured up to 24 hrs; type: ADME, organism-based; parameters: route oral, dose 3 mg/kg, time <=24; settings: in vivo
[9] = Cmax in Sprague-Dawley rat at 3 mg/kg, po measured up to 24 hrs; type: ADME, organism-based; parameters: route oral, dose 3 mg/kg, time <=24; settings: in vivo

T1 sequence (P14902 whole entry): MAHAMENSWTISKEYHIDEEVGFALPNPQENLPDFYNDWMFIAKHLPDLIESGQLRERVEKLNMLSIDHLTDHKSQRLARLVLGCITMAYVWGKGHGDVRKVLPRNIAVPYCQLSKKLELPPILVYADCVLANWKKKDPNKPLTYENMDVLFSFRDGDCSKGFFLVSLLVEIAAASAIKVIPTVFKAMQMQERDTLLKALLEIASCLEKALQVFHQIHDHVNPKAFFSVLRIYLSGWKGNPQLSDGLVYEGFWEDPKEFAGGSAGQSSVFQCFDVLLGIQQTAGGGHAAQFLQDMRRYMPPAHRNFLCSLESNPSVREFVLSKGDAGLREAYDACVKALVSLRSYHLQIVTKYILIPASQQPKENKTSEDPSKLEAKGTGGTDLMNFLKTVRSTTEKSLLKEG

IC50 [1] [nM]	IC50 [2] [nM]	IC50 [3] [µM]	half-life [4] [min]	AUC at 24 h [5] [ng·h/mL]	Cmax [6] [ng/mL]	half-life [7] [min]	AUC at 24 h [8] [ng·h/mL]	Cmax [9] [ng/mL]	SMILES
578	497	> 100							O/N=C(/CC1CCCCC1)Nc1ccc(F)c(Br)c1
15	14	> 100	66	255	140	305	1030	173	Cn1cc(-c2ccc(NC(=O)N3CCC(C(=O)/C(=N/O)Nc4ccc(F)c(Br)c4)CC3)cc2)cn1
28	43	89.8							O=C(/C(=N/O)Nc1ccc(F)c(Br)c1)C1CCN(C(=O)NCc2ccccc2)CC1
291	102	> 100							O=C(/C(=N/O)Nc1ccc(F)c(Br)c1)[C@H]1CC[C@H](NS(=O)(=O)Nc2ccccc2)CC1
1430	410	80							O=C(/C(=N/O)Nc1ccc(F)c(Br)c1)c1ccccc1
197	150	> 100							O=C(Nc1ccccc1)[C@H]1CC[C@H](C(=O)/C(=N/O)Nc2ccc(F)c(Br)c2)CC1
272	117	63.1							O=C(/C(=N/O)Nc1ccc(F)c(Br)c1)c1cccs1
54	40	58							O=C(/C(=N/O)Nc1ccc(F)c(Br)c1)C1CCN(C(=O)Nc2ccccc2)CC1
21	198	58.7							NS(=O)(=O)NC[C@H]1CC[C@H](C(=O)/C(=N/O)Nc2ccc(F)c(Br)c2)CC1
